Experimental data: ChEMBL document CHEMBL4011649 (J Med Chem, 2017)
pEC50: −log10 of the molar value. Activity calls are given as the source filed them. The rule behind the calls is not given here.

Legend:
[1] = biological target: T1, 5-hydroxytryptamine receptor 2C (Homo sapiens, UniProt P28335); assay: Agonist activity at human 5-HT2C-INI receptor isoform expressed in Flp-IN HEK293 cells assessed as induction of Gq-mediated calcium flux measured every second for 5 mins by Fluo-4 dye based FLIPR assay; format: functional, cell-based; conditions: read-out: EC50
T1 sequence (P28335 whole entry): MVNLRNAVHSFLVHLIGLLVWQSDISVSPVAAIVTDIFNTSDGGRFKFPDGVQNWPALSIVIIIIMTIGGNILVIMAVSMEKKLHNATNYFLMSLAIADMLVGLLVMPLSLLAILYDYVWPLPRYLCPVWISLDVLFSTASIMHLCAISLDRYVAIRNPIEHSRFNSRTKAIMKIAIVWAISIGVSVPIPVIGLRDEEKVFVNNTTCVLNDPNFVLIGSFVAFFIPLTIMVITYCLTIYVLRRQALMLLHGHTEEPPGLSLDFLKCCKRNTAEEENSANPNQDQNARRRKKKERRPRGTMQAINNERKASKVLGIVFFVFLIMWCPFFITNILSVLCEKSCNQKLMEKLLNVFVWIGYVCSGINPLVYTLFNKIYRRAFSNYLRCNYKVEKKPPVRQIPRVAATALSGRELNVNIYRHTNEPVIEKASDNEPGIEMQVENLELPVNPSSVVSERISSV

[2] = biological target: T2, 5-hydroxytryptamine receptor 2B (Homo sapiens, UniProt P41595); assay: Agonist activity at human 5-HT2B receptor expressed in Flp-IN HEK293 cells assessed as induction of calcium flux measured every second for 5 mins by Fluo-4 dye based FLIPR assay; format: cell-based
[3] = biological target: T3, 5-hydroxytryptamine receptor 2A (Homo sapiens, UniProt P28223); assay: Agonist activity at human 5-HT2A receptor expressed in Flp-IN HEK293 cells assessed as induction of calcium flux measured every second for 5 mins by Fluo-4 dye based FLIPR assay; format: cell-based
[4] = biological target: T4, 5-hydroxytryptamine receptor 2C (Homo sapiens) (UniProt P28335); assay: Agonist activity at human 5-HT2C-INI receptor isoform expressed in Flp-IN HEK293 cells assessed as induction of Gq-mediated calcium flux measured every second for 5 mins by Fluo-4 dye based FLIPR assay relative to serotonin; format: functional, cell-based
T4 sequence (whole entry): T1 sequence (P28335 whole entry)

5-HT2B receptor = 5-HT2B receptor (Homo sapiens, UniProt P41595); assay: Agonist activity at human 5-HT2B receptor expressed in Flp-IN HEK293 cells assessed as induction of calcium flux measured every second for 5 mins by Fluo-4 dye based FLIPR assay relative to serotonin; format: cell-based; conditions: Flp-IN HEK293 cells expressing human 5-HT2B receptor
5-HT2A receptor = 5-HT2A receptor (Homo sapiens, UniProt P28223); assay: Agonist activity at human 5-HT2A receptor expressed in Flp-IN HEK293 cells assessed as induction of calcium flux measured every second for 5 mins by Fluo-4 dye based FLIPR assay relative to serotonin; format: cell-based; conditions: Flp-IN HEK293 cells expressing human 5-HT2A receptor
[5] = biological target: T4, 5-hydroxytryptamine receptor 2C (Homo sapiens); assay: Agonist activity at human 5-HT2C-INI receptor isoform expressed in Flp-IN HEK293 cells assessed as induction of Gq-mediated calcium flux up to 10 uM measured every second for 5 mins by Fluo-4 dye based FLIPR assay; format: functional, cell-based
[6] = biological target: T2, 5-hydroxytryptamine receptor 2B; assay: Agonist activity at human 5-HT2B receptor expressed in Flp-IN HEK293 cells assessed as induction of calcium flux up to 10 uM measured every second for 5 mins by Fluo-4 dye based FLIPR assay; format: cell-based; conditions: hek293, 5 min
Homo sapiens = species: Homo sapiens; assay: Selectivity ratio of EC50 for human 5HT2B receptor to EC50 for human 5HT2C-INI receptor
[7] = biological target: T3, 5-hydroxytryptamine receptor 2A; assay: Agonist activity at human 5-HT2A receptor expressed in Flp-IN HEK293 cells assessed as induction of calcium flux up to 10 uM measured every second for 5 mins by Fluo-4 dye based FLIPR assay; format: cell-based; conditions: hek293, 5 min

T3 sequence (P28223 whole entry, canonical isoform): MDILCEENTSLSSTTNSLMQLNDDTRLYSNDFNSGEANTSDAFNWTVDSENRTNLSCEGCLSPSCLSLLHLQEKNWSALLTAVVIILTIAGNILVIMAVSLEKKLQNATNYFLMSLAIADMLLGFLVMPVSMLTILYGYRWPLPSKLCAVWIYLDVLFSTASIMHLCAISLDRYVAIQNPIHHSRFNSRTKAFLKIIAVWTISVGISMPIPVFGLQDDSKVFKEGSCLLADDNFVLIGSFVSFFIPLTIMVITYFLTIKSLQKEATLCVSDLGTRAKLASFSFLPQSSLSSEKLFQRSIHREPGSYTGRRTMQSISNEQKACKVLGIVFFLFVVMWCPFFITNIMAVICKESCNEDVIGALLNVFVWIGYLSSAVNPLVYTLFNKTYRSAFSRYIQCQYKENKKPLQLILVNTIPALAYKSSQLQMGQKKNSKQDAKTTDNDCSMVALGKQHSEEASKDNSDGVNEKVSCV
5-HT2A receptor, sequence (P28223 whole entry, canonical isoform): as above
T2 sequence (P41595 whole entry): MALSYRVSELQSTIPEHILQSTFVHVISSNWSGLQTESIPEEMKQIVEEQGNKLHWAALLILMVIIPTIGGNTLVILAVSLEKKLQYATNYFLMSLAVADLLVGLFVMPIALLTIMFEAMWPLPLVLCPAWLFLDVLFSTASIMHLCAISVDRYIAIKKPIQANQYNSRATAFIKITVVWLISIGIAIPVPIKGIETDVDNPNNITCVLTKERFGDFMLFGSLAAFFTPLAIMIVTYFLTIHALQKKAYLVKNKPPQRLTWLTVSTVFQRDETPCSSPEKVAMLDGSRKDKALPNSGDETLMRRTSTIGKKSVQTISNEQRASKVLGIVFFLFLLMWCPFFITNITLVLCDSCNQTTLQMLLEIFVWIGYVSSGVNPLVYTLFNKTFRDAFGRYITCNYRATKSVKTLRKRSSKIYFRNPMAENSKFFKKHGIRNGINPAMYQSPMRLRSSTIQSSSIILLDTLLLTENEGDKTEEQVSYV
5-HT2B receptor, sequence (P41595 whole entry): as above

Q: With `COc1ccc(F)cc1C1CC1CNCc1ccccc1C#N` (racemic) as the compound, how does the pEC50 [1] read?
A: 6.61

Q: And the pEC50 [2]?
A: 6.62

Q: And the pEC50 [3]?
A: 6.14

Q: And the Emax [4]?
A: 30%

Q: And the Emax at 5 min (5-HT2B receptor)?
A: 82%

Q: And the Emax at 5 min (5-HT2A receptor)?
A: 63%

Q: What does the source list for `COc1ccc(F)cc1C1CC1CNCc1cccc2cccnc12` (racemic)?
A: pEC50 [1]: 6.28; pEC50 [2]: 7.06; pEC50 [3]: 6.34; Emax [4]: 84%; Emax at 5 min (5-HT2B receptor): 73%; Emax at 5 min (5-HT2A receptor): 69%

Q: Which results are given for `COc1ccc(F)cc1C1CC1CNCC1CC1.Cl` (racemic)?
A: Activity [5]: inactive; Activity [6]: Not Active; pEC50 [3]: 5.37; Emax at 5 min (5-HT2A receptor): 43%

Q: `COc1ccc(F)cc1C1CC1CNCc1cccc2ccsc12` (racemic) was tested. Which pEC50 [1] did it give?
A: 6.11

Q: And the pEC50 [2]?
A: 6.09

Q: What about the pEC50 [3] of the same compound?
A: 5.65

Q: What about the Emax [4] of the same compound?
A: 94%

Q: What about the Emax at 5 min (5-HT2B receptor) of the same compound?
A: 79%

Q: And the Emax at 5 min (5-HT2A receptor)?
A: 70%

Q: Which results are given for `COc1ccc(F)cc1C1CC1CNCc1ccsc1OC.Cl` (racemic)?
A: pEC50 [1]: 6.25; Activity [6]: Not Active; pEC50 [3]: 6.33; Emax [4]: 65%; Emax at 5 min (5-HT2A receptor): 100%

Q: `COc1ccc(F)cc1C1CC1CNCc1ccccc1O.Cl` (racemic) was tested. Which pEC50 [1] did it give?
A: 6.52

Q: What about the Activity [6] of the same compound?
A: Not Active

Q: And the pEC50 [3]?
A: 7.11

Q: And the Emax [4]?
A: 63%

Q: What about the Emax at 5 min (5-HT2A receptor) of the same compound?
A: 76%

Q: With `COc1ccc(F)cc1C1CC1CNCc1ccccc1OCCF` (racemic) as the compound, how does the pEC50 [1] read?
A: 7.55

Q: And the pEC50 [2]?
A: 7.25

Q: And the pEC50 [3]?
A: 6.40

Q: What about the Emax [4] of the same compound?
A: 16%

Q: What about the Emax at 5 min (5-HT2B receptor) of the same compound?
A: 11%

Q: And the Emax at 5 min (5-HT2A receptor)?
A: 80%

Q: And the Ratio EC50 (Homo sapiens)?
A: 2

Q: Which results are given for `COc1cscc1CNCC1CC1c1cc(F)ccc1OC.Cl` (racemic)?
A: pEC50 [1]: 6.64; Activity [6]: Not Active; pEC50 [3]: 6.84; Emax [4]: 65%; Emax at 5 min (5-HT2A receptor): 89%

Q: How did the pEC50 [1] turn out when `COc1ccc(F)cc1C1CC1CNCC1CCCCC1.Cl` (racemic) was run?
A: 7.02

Q: And the Activity [6]?
A: Not Active

Q: And the Activity [7]?
A: Not Active

Q: What about the Emax [4] of the same compound?
A: 15%

Q: What does the source list for `COc1ccc(CNC[C@@H]2C[C@H]2c2cc(F)ccc2OC)cc1.Cl`?
A: Activity [5]: inactive; Activity [6]: Not Active; Activity [7]: Not Active

Q: With `COc1ccccc1CCNCC1CC1c1cc(F)ccc1OC` (racemic) as the compound, how does the pEC50 [3] read?
A: 6.51

Q: And the Emax at 5 min (5-HT2A receptor)?
A: 59%

Q: Which Activity [5] does the source give for `CNC[C@H]1C[C@@H]1c1cc(F)ccc1OCCF.Cl` here?
A: inactive

Q: What about the Activity [6] of the same compound?
A: Not Active

Q: And the Activity [7]?
A: Not Active

Q: Which results are given for `COc1ccc(CNC[C@H]2C[C@@H]2c2cc(F)ccc2OC)cc1.Cl`?
A: pEC50 [1]: 5.92; Activity [6]: Not Active; Activity [7]: Not Active; Emax [4]: 71%

Q: How did the pEC50 [1] turn out when `COc1ccc(F)cc1[C@@H]1C[C@H]1CNCc1ccccc1F.Cl` was run?
A: 5.79

Q: What about the Activity [6] of the same compound?
A: Not Active

Q: What about the pEC50 [3] of the same compound?
A: 5.73

Q: And the Emax [4]?
A: 90%

Q: What about the Emax at 5 min (5-HT2A receptor) of the same compound?
A: 78%

Q: With `COc1cccc(CNC[C@@H]2C[C@H]2c2cc(F)ccc2OC)c1.Cl` as the compound, how does the pEC50 [1] read?
A: 5.59

Q: And the Activity [6]?
A: Not Active

Q: And the pEC50 [3]?
A: 5.16

Q: What about the Emax [4] of the same compound?
A: 85%

Q: What about the Emax at 5 min (5-HT2A receptor) of the same compound?
A: 97%

Q: What does the source list for `COc1ccc(F)cc1C1CC1CNCc1cccnc1OC` (racemic)?
A: pEC50 [1]: 6.36; pEC50 [2]: 6.56; pEC50 [3]: 5.89; Emax [4]: 65%; Emax at 5 min (5-HT2B receptor): 32%; Emax at 5 min (5-HT2A receptor): 66%

Q: `COc1ccc(F)cc1[C@H]1C[C@@H]1CNCc1ccccc1Cl.Cl` was tested. Which pEC50 [1] did it give?
A: 6.28

Q: And the Activity [6]?
A: Not Active

Q: What about the pEC50 [3] of the same compound?
A: 5.45

Q: What about the Emax [4] of the same compound?
A: 94%

Q: And the Emax at 5 min (5-HT2A receptor)?
A: 64%
